{"source": "patent US5726012A", "about": "“Rapid, high capacity nucleic acid based assay” (E. I. du Pont de Nemours and Company, priority 1994, dated 1998)", "key": {"[1]": {"system": "HIV RF (HIV-1 RNA) in MT-2 cells", "experiment": "HIV-1 RNA microtiter plate compound evaluation assay in HIV-1 infected MT-2 cells (gag capture/reporter probes)", "assay_type": "cell-based, HIV-1 (strain RF)", "procedure": "Compounds to be evaluated for antiviral activity were dissolved in DMSO and diluted at least 1:50 in culture medium, to 2× the highest concentration to be tested. Further, three-fold serial dilutions of the compound in culture medium were performed directly in U bottom microtiter plates (Nunc). After compound dilution, MT-2 cells, which had been sub-cultured one day prior to infection, were added to a final concentration of 5×10^5 cells/ml (1×10^5 cells/well). Cells were incubated with compounds in a volume of 150 μl for 30 minutes at 37° C. in a CO2 incubator. For evaluation of antiviral potency, appropriate dilutions of HIV RF virus stock (50 μl) were added to culture wells containing the cells and the dilutions of the compounds to be tested. Eight wells per plate were left uninfected with 50 μl of medium added instead of virus, while eight wells were infected in the absence of any antiviral compound. For evaluation of compound toxicity, parallel plates were cultured without virus infection. After three days of culture at 37° C. in a humidified chamber inside a CO2 incubator, all but 25 μl of medium/well was removed from the HIV infected plates. 37 μl of 5M GED containing the biotinylated capture oligo was added to the remaining medium and settled cells in each well to a final concentration of 3M GED, 50 nM biotinylated capture oligo. Hybridization of the biotinylated capture oligo to HIV-1 RNA in the cell lysate was carried out in the same microplate well by sealing the plate and incubating for 16-20 hours in a 37° C. incubator. 124 μl of distilled water was added to each well to dilute the hybridization reaction three-fold, and 150 μl aliquots of this diluted mixture was transferred to streptavidin coated microtiter plate wells. The biotin oligo-RNA complex solution was incubated with the immobilized streptavidin for two hours at room temperature, after which the plates were washed six times with DuPont ELISA plate wash buffer (phosphate buffered saline (PBS)/0.05% Tween 20) with a Denley plate washer. A second hybridization was carried out by adding 120 μl of hybridization cocktail containing 4× standard saline citrate (0.15M NaCl, 0.015 sodium citrate) (SSC), 0.66% Triton X-100 and 6.66% deionized formamide, 1 mg/ml bovine serum albumin (BSA) and 5 nM `gag` AP reporter oligo to each well. After hybridization for one hour at 37° C., the plate was again washed six times in PBS/0.05% Tween 20. Alkaline phosphatase activity was detected by addition of 100 μl of substrate detection buffer, consisting of: 0.2 mM 4-methylumbelliferyl phosphate (MUBP, JBL Scientific) in 2.5M diethanolamine pH 8.9 (JBL), 10 mM MgCl2, 5 mM Zinc acetate dihydrate, and 5 mM n-hydroxyethyl-ethylene-diamine-triaceticacid. The plates were incubated at 37° C. and the fluorescence produced measured in a microplate fluorometer (Dynateck) exciting at 365 nm and emitting at 450 nm. A standard curve, prepared by adding known amounts of pDAB 72 in vitro RNA transcript to wells containing lysed, uninfected cells, was run on each microtiter plate.\nIn order to standardize the virus innoculum used in the evaluation of compounds for anti-vital efficacy, a dose response to ddC was determined at several different dilutions of each virus stock to be used. A dilution of each stock of HIV RF virus stock which gaven an IC90 for ddC of 0.2 ug/ml was selected and used in subsequent compound evaluation assays.\nThe microtiter plate compound evaluation assay described in Example 9 above was employed to evaluate the efficacy of cyclohexamide, di-deoxycytidine (ddC) and XJ104 (N,N'-bis[tert-butoxycarbonyl-valyl]-1,6-diphenyl-2S,5S-diamino-3R,4R-dihydroxy(triphenylphosphine adduct)-hexane) as described in WO91/18866, the disclosure of which is hereby incorporated by reference, utilizing the HIV-1 `gag` capture and reporter probes described in Example 2.\nIn the figures below the IC90 and TC50 are indicated. […]"}, "[2]": {"experiment": "MTT dye reduction cytotoxicity assay on parallel uninfected MT-2 cultures", "assay_type": "cell-based, human", "settings": "human", "procedure": "(§1) Compounds to be evaluated for antiviral activity were dissolved in DMSO and diluted at least 1:50 in culture medium, to 2× the highest concentration to be tested. Further, three-fold serial dilutions of the compound in culture medium were performed directly in U bottom microtiter plates (Nunc). After compound dilution, MT-2 cells, which had been sub-cultured one day prior to infection, were added to a final concentration of 5×10^5 cells/ml (1×10^5 cells/well). Cells were incubated with compounds in a volume of 150 μl for 30 minutes at 37° C. in a CO2 incubator. For evaluation of antiviral potency, appropriate dilutions of HIV RF virus stock (50 μl) were added to culture wells containing the cells and the dilutions of the compounds to be tested. Eight wells per plate were left uninfected with 50 μl of medium added instead of virus, while eight wells were infected in the absence of any antiviral compound. For evaluation of compound toxicity, parallel plates were cultured without virus infection. After three days of culture at 37° C. in a humidified chamber inside a CO2 incubator, all but 25 μl of medium/well was removed from the HIV infected plates. […] Alkaline phosphatase activity was detected by addition of 100 μl of substrate detection buffer, consisting of: 0.2 mM 4-methylumbelliferyl phosphate (MUBP, JBL Scientific) in 2.5M diethanolamine pH 8.9 (JBL), 10 mM MgCl2, 5 mM Zinc acetate dihydrate, and 5 mM n-hydroxyethyl-ethylene-diamine-triaceticacid. The plates were incubated at 37° C. and the fluorescence produced measured in a microplate fluorometer (Dynateck) exciting at 365 nm and emitting at 450 nm. […]\n(§2) In order to assess the potential cytotoxicity of compounds being evaluated for antiviral efficacy, an MTT dye reduction assay was performed at the end of the three day culture period on the parallel, uninfected, but compound treated cultures. […] Solubilized MTT dye product was quantitated using an ELISA microplate reader at 570 nm. […]"}, "[3]": {"system": "MT-2 cells", "experiment": "MTT dye reduction cytotoxicity assay on parallel uninfected MT-2 cultures", "assay_type": "cell-based, human", "settings": "uninfected MT-2 cells, three days culture; 50% reduction of absorbance at 570 nm in MTT assay; 4320 min", "procedure": "as §1, §2"}, "[4]": {"settings": "TC50 to IC90 ratio of greater than 3 regarded as antiviral efficacy"}}, "note": "Read-outs that look alike come from different tables or passages of the source.", "data": [{"compound": "C[C@@H]1C[C@@H]([C@H](O)CC2CC(=O)NC(=O)C2)C(=O)[C@@H](C)C1", "note": "[cyclohexamide]", "values": [{"measurement": "IC90", "setting": "[1]; Human immunodeficiency virus 1, MT2, 72 h, read-out: IC90 in the RNA assay", "result": 0.45, "unit": "µg/mL"}, {"measurement": "specific anti-viral efficacy (IC90 in RNA assay compared with TC50 in MTT assay)", "setting": "[1]; [4]", "result": "no specific anti-viral efficacy is apparent"}, {"measurement": "CC50 at 72 h", "setting": "[2]; uninfected MT-2 cells, three days culture, 50% reduction of absorbance at 570 nm in MTT assay, read-out: TC50", "result": 0.45, "unit": "µg/mL"}]}, {"compound": "N,N'-bis[tert-butoxycarbonyl-valyl]-1,6-diphenyl-2S,5S-diamino-3R,4R-dihydroxy(triphenylphosphine adduct)-hexane [XJ104]", "values": [{"measurement": "IC90 in the RNA assay", "setting": "[1]; HIV RF infected MT-2 cells, three days culture, 90% reduction of HIV-1 RNA, FIGS. 4-6", "result": 30, "unit": "µg/mL"}, {"measurement": "specific anti-viral efficacy (IC90 in RNA assay compared with TC50 in MTT assay)", "setting": "[1]; [4]", "result": "no specific anti-viral efficacy is apparent"}, {"measurement": "TC50", "setting": "[3]", "result": 2, "unit": "µg/mL"}]}, {"compound": "Nc1ccn([C@H]2CC[C@@H](CO)O2)c(=O)n1", "note": "[ddC, di-deoxycytidine]", "values": [{"measurement": "specific anti-viral efficacy (IC90 in RNA assay compared with TC50 in MTT assay)", "setting": "[1]", "result": "displays anti-viral efficacy"}, {"measurement": "IC90", "setting": "[1]; Human immunodeficiency virus 1, MT2, 72 h, HIV RF infected MT-2 cells, three days culture, 90% reduction of HIV-1 RNA, FIGS. 4-6, read-out: IC90 in the RNA assay", "result": 0.13, "unit": "µg/mL"}, {"measurement": "IC90", "setting": "[1]; Human immunodeficiency virus 1, MT2, selected dilution of each HIV RF virus stock, read-out: IC90 for ddC used to standardize virus innoculum", "result": 0.2, "unit": "µg/mL"}, {"measurement": "CC50 at 72 h", "setting": "[2]; mt-2 cells", "result": "> 50", "unit": "µg/mL"}]}]}
